Source: patent US20250320193A1, “OXOISOINDOLINYL SUBSTITUTED PIPERIDINEDIONE DERIVATIVE AND USE THEREOF” (GLUETACS THERAPEUTICS (SHANGHAI) CO., LTD., priority 2022, published 2025)

These compounds were tested against human Cereblon WT GST-tagged protein (Homo sapiens (Human), UniProt Q96SW2) (assay: CRBN-binding affinity, HTRF (CEREBLON BINDING kit, CISBIO)). Conditions: HTRF inhibitory activity.
Procedure: I. Determination of CRBN-binding affinity of compounds of the present disclosure:
The CEREBLON BINDING kits (specification: 10,000 tests; product number: Catalog #64BDCRBNPEH; CISBIO company) was used to determine the CRBN binding ability of the compounds to be tested through a HTRF method (homogeneous time-resolved fluorescence). The specific methods are as follows: • 1. […] Then, 2.5 μL of human Cereblon WT GST-tagged protein solution was added to each well. Finally, 5 μL of the thoroughly mixed Thalidomide-Red reagent and GST Eu antibody working solution were added to each of the aforementioned wells. […] The blank control wells were sequentially added with 2.5 μL of diluent #9 (1X) solution, 2.5 μL of PROTAC binding buffer, and 5 μL of thoroughly mixed Thalidomide-Red reagent and GST Eu antibody working solution. • 4.
The corresponding CRBN binding inhibition rate was calculated using the following method: […]
OD 620 nmcompound is the absorbance value of each well of the compounds to be tested of the present disclosure at an emission wavelength of 620 nm. […] OD 620 nmcontrol is the absorbance value of the blank control well at an emission wavelength of 620 nm. […] OD 620 nmStd0 is the absorbance value of the solvent control well at an emission wavelength of 620 nm.

human Cereblon WT GST-tagged protein, sequence (Q96SW2 whole entry): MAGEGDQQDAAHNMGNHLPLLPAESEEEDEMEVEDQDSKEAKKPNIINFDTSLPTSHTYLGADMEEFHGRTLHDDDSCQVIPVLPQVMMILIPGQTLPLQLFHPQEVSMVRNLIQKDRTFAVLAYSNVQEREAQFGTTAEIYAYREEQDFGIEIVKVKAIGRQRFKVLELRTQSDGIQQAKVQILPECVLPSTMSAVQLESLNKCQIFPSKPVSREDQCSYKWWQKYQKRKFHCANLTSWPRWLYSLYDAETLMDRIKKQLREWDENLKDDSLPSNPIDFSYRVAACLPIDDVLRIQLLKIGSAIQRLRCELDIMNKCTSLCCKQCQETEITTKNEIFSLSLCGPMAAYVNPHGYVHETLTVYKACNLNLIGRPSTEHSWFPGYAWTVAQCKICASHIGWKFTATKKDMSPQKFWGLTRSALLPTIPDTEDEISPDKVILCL

SMILES	IC50 [nM]
CC1CN(C(c2ccccc2)c2ccccc2)CC(C)N1Cc1cc(F)c2c(c1)CN(C1CCC(=O)NC1=O)C2=O (stereo not shown) [GT-03874, 3-(5-((4-benzhydryl-2,6-dimethylpiperazin-1-yl)methyl)-7-fluoro-1-oxoisoindolin-2-yl)piperidine-2,6-dione]	< 500
O=C1CCC(N2Cc3cc(CN4C(=O)c5cccc6cccc(c56)C4=O)ccc3C2=O)C(=O)N1 (stereo not shown) [GT-04244, 2-((2-(2,6-dioxopiperidin-3-yl)-1-oxoisoindolin-5-yl)methyl)-1H-benzo[de]isoquinoline-1,3(2H)-dione]	< 500
O=C1CCC(N2Cc3ccc(CN4CCN(C(c5ccccc5)c5ccccc5)CC4)cc3C2=O)C(=O)N1 (stereo not shown) [GT-05686, 3-(6-((4-benzhydrylpiperazin-1-yl)methyl)-1-oxoisoindolin-2-yl)piperidine-2,6-dione]	1000 to 1900
O=C1CCC(N2Cc3ccc(CN4CCN(C(c5ccc(F)cc5)c5ccc(F)cc5)CC4)cc3C2=O)C(=O)N1 (stereo not shown) [GT-05719, 3-(6-((4-(bis(4-fluorophenyl)methyl)piperazin-1-yl)methyl)-1-oxoisoindolin-2-yl)piperidine-2,6-dione]	500 to 1000
O=C1CCC(N2Cc3cccc(CN4CCN(C(c5ccc(F)cc5)c5ccc(F)cc5)CC4)c3C2=O)C(=O)N1 (stereo not shown) [GT-05720, 3-(7-((4-(bis(4-fluorophenyl)methyl)piperazin-1-yl)methyl)-1-oxoisoindolin-2-yl)piperidine-2,6-dione]	1000 to 1900
O=C1CCC(N2C(=O)c3ccc(CN4C5CC4CN(C(c4ccccc4)c4ccccc4)C5)cc3C2=O)C(=O)N1 (stereo not shown) [GT-05728, 5-((3-benzhydryl-3,6-diazabicyclo[3.1.1]heptan-6-yl)methyl)-2-(2,6-dioxopiperidin-3-yl) isoindoline-1,3-dione]	1000 to 1900
O=C1CCC(N2Cc3cc(NN4CCN(C(c5ccccc5)c5ccccc5)CC4)ccc3C2=O)C(=O)N1 (stereo not shown) [GT-05743, 3-(5-((4-benzhydrylpiperazin-1-yl)amino)-1-oxoisoindolin-2-yl)piperidine-2,6-dione]	1000 to 1900
O=C1CCC(N2Cc3cc(C=C4CN(C(c5ccccc5)c5ccccc5)C4)ccc3C2=O)C(=O)N1 (stereo not shown) [GT-05745, 3-(5-((1-benzhydrylazetidin-3-ylidene)methyl)-1-oxoisoindolin-2-yl)piperidine-2,6-dione]	< 500
O=C1CCC(N2Cc3cc(N4CC5CCC(C4)N5C(c4ccccc4)c4ccccc4)ccc3C2=O)C(=O)N1 (stereo not shown) [GT-05865, 3-(5-(8-benzhydryl-3,8-diazabicyclo[3.2.1]octan-3-yl)-1-oxoisoindolin-2-yl)piperidine-2,6-dione]	500 to 1000
O=C1CCC(N2Cc3cc(-c4ccc(CN5CCN(C(c6ccccc6)c6ccccc6)CC5)cc4)ccc3C2=O)C(=O)N1 (stereo not shown) [GT-05867, 3-(5-(4-((4-benzhydrylpiperazin-1-yl)methyl)phenyl)-1-oxoisoindolin-2-yl)piperidine-2,6-dione]	1000 to 1900
O=C1CCC(N2Cc3ccc(C(=O)N4CCN(C(c5ccc(Cl)cc5)c5ccc(Cl)cc5)CC4)cc3C2=O)C(=O)N1 (stereo not shown) [GT-05888, 3-(6-(4-(bis(4-chlorophenyl)methyl)piperazine-1-carbonyl)-1-oxoisoindolin-2-yl)piperidine-2,6-dione]	1000 to 1900
O=C1CCC(N2Cc3cc(CN4CC5CCC(C4)N5C(c4ccccc4)c4ccccc4)c(F)cc3C2=O)C(=O)N1 (stereo not shown) [GT-05896, 3-(5-((8-benzhydryl-3,8-diazabicyclo[3.2.1]octan-3-yl)methyl)-6-fluoro-1-oxoisoindolin-2-yl)piperidine-2,6-dione]	500 to 1000
O=C1CCC(N2Cc3cc(CN4CC5CCC(C4)N5C(c4ccccc4)c4ccccc4)cc(F)c3C2=O)C(=O)N1 (stereo not shown) [GT-05897, 3-(5-((8-benzhydryl-3,8-diazabicyclo[3.2.1]octan-3-yl)methyl)-7-fluoro-1-oxoisoindolin-2-yl)piperidine-2,6-dione]	500 to 1000

Other lines, results leading:

IC50 [nM]	SMILES
1000 to 1900	O=C1CCC(N2Cc3cc(CN4CCN(C(c5ccc(Cl)cc5)c5ccc(Cl)cc5)CC4)cc(F)c3C2=O)C(=O)N1 (stereo not shown) [GT-03568, 3-(5-((4-(bis(4-chlorophenyl)methyl)piperazin-1-yl)methyl)-7-fluoro-1-oxoisoindolin-2-yl)piperidine-2,6-dione]
< 500	O=C1CCC(N2Cc3c(ccc(CN4C[C@H]5C[C@@H]4CN5C(c4ccccc4)c4ccccc4)c3F)C2=O)C(=O)N1 (stereo partly drawn) [GT-03573, 3-(5-(((1R,4R)-5-benzhydryl-2,5-diazabicyclo[2.2.1]heptan-2-yl)methyl)-4-fluoro-1-oxoisoindolin-2-yl)piperidine-2,6-dione]
< 500	O=C1CCC(N2Cc3cc(CN4C[C@H]5C[C@@H]4CN5C(c4ccccc4)c4ccccc4)cc(F)c3C2=O)C(=O)N1 (stereo partly drawn) [GT-03576, 3-(5-(((1R,4R)-5-benzhydryl-2,5-diazabicyclo[2.2.1]heptan-2-yl)methyl)-7-fluoro-1-oxoisoindolin-2-yl)piperidine-2,6-dione]
< 500	C[C@@H]1CN(C(c2ccccc2)c2ccccc2)CCN1Cc1cc(F)c2c(c1)CN(C1CCC(=O)NC1=O)C2=O (stereo partly drawn) [GT-03577, 3-(5-(((R)-4-benzhydryl-2-methylpiperazin-1-yl)methyl)-7-fluoro-1-oxoisoindolin-2-yl)piperidine-2,6-dione]
500 to 1000	O=C1CCC(N2Cc3c(CN4CCN(C(c5ccccc5)c5ccccc5)CC4)cccc3C2=O)C(=O)N1 (stereo not shown) [GT-03646, 3-(4-((4-benzhydrylpiperazin-1-yl)methyl)-1-oxoisoindolin-2-yl)piperidine-2,6-dione]
< 500	O=C1CCC(N2Cc3cc(CN4CCN(C(c5ccccc5)c5ccccn5)CC4)cc(F)c3C2=O)C(=O)N1 (stereo not shown) [GT-03834, 3-(7-fluoro-1-oxo-5-((4-(phenyl(pyridin-2-yl)methyl)piperazin-1-yl)methyl)isoindolin-2-yl)piperidine-2,6-dione]
500 to 1000	O=C1CCC(N2Cc3c(CN4CCN(C(c5cccc(F)c5)c5cccc(F)c5)CC4)cccc3C2=O)C(=O)N1 (stereo not shown) [GT-03875, 3-(4-((4-(bis(3-fluorophenyl)methyl)piperazin-1-yl)methyl)-1-oxoisoindolin-2-yl)piperidine-2,6-dione]
< 500	CC1(C)CN(Cc2ccc3c(c2)CN(C2CCC(=O)NC2=O)C3=O)CCN1C(c1ccccc1)c1ccccc1 (stereo not shown) [GT-04165, 3-(5-((4-benzhydryl-3,3-dimethylpiperazin-1-yl)methyl)-1-oxoisoindolin-2-yl)piperidine-2,6-dione]
500 to 1000	CC1(C)CN(Cc2ccc3c(c2F)CN(C2CCC(=O)NC2=O)C3=O)CCN1C(c1ccccc1)c1ccccc1 (stereo not shown) [GT-04166, 3-(5-((4-benzhydryl-3,3-dimethylpiperazin-1-yl)methyl)-4-fluoro-1-oxoisoindolin-2-yl)piperidine-2,6-dione]
1000 to 1900	O=C1CCC(N2Cc3cc(CN4CCN(C(c5ccccn5)c5ccccn5)CC4)cc(F)c3C2=O)C(=O)N1 (stereo not shown) [GT-05714, 3-(5-((4-(di(pyridin-2-yl)methyl)piperazin-1-yl)methyl)-7-fluoro-1-oxoisoindolin-2-yl)piperidine-2,6-dione]
1000 to 1900	O=C1CCC(N2Cc3c(CN4CCN(C(c5ccccn5)c5ccccn5)CC4)cccc3C2=O)C(=O)N1 (stereo not shown) [GT-05715, 3-(4-((4-(di(pyridin-2-yl)methyl)piperazin-1-yl)methyl)-1-oxoisoindolin-2-yl)piperidine-2,6-dione]
< 500	O=C1CCC(N2Cc3c(ccc(CN4CCN(C(c5cccnc5)c5cccnc5)CC4)c3F)C2=O)C(=O)N1 (stereo not shown) [GT-05716, 3-(5-((4-(di(pyridin-3-yl)methyl)piperazin-1-yl)methyl)-4-fluoro-1-oxoisoindolin-2-yl)piperidine-2,6-dione]
500 to 1000	O=C1CCC(N2Cc3c(C(=O)N4CCN(C(c5ccccc5)c5ccccc5)CC4)cccc3C2=O)C(=O)N1 (stereo not shown) [GT-05721, 3-(4-(4-benzhydrylpiperazine-1-carbonyl)-1-oxoisoindolin-2-yl)piperidine-2,6-dione]
1000 to 1900	O=C1CCC(N2Cc3ccc(CN4CCN(C(c5ccc(Cl)cc5)c5ccc(Cl)cc5)CC4)cc3C2=O)C(=O)N1 (stereo not shown) [GT-05735, 3-(6-((4-(bis(4-chlorophenyl)methyl)piperazin-1-yl)methyl)-1-oxoisoindolin-2-yl)piperidine-2,6-dione]
1000 to 1900	O=C1CCC(N2Cc3cccc(CN4CCN(C(c5ccc(Cl)cc5)c5ccc(Cl)cc5)CC4)c3C2=O)C(=O)N1 (stereo not shown) [GT-05736, 3-(7-((4-(bis(4-chlorophenyl)methyl)piperazin-1-yl)methyl)-1-oxoisoindolin-2-yl)piperidine-2,6-dione]
< 500	O=C1CCC(N2Cc3cc(NC4CCN(C(c5ccccc5)c5ccccc5)CC4)ccc3C2=O)C(=O)N1 (stereo not shown) [GT-05864, 3-(5-((1-benzhydrylpiperidin-4-yl)amino)-1-oxoisoindolin-2-yl)piperidine-2,6-dione]
1000 to 1900	O=C1CCC(N2Cc3cc(C(=O)N4CCN(C(c5ccc(Cl)cc5)c5ccc(Cl)cc5)CC4)cc(F)c3C2=O)C(=O)N1 (stereo not shown) [GT-05887, 3-(5-(4-(bis(4-chlorophenyl)methyl)piperazine-1-carbonyl)-7-fluoro-1-oxoisoindolin-2-yl)piperidine-2,6-dione]
< 500	O=C1CCC(N2Cc3cc(CN4C[C@@H]5C[C@H]4CN5C(c4ccccc4)c4ccccc4)cc(F)c3C2=O)C(=O)N1 (stereo partly drawn) [GT-05895, 3-(5-(((1S,4S)-5-benzhydryl-2,5-diazabicyclo[2.2.1]heptan-2-yl)methyl)-7-fluoro-1-oxoisoindolin-2-yl)piperidine-2,6-dione]
